This passage reports TGI results from PubChem BioAssay (NCI).

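1) Cells in 96-well plates. 2) Compound, 48 h, 5 concentrations. 3) Linear interpolation between surrounding doses. 4) Unreached endpoint = highest concentration. Definition used: TGI = concentration required for complete inhibition of growth.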 Where only a bound is given, the exact number is not on record here.

Among the test systems are TK-10 renal; T-47D breast; MCF7 breast; K-562 leukemia; MOLT-4 leukemia; OVCAR-5 ovarian; HCT-15 colon; HOP-62 NSCLC; NCI-H460 lung; M14 melanoma; COLO 205 colon.
Holding throughout (experiment): inhibition of tumour cell growth, NCI panel, 48 h

As for `O=c1c2ccccc2[nH]c(=S)n1-c1ccc(N=Nc2cccc3cc(O)ccc23)cc1`, the TGI with TK-10 renal, with T-47D breast, in the assay on MCF7 breast, with K-562 leukemia, in the assay with MOLT-4 leukemia and in the assay with OVCAR-5 ovarian was > 100 µM each time. For the same molecule, the TGI in the assay with HCT-15 colon, with HOP-62 NSCLC, in the assay on NCI-H460 lung, in the assay with M14 melanoma and with COLO 205 colon was > 100 µM each time.
On to `Nc1ccc(Oc2ccc(C34CC5CC(C3)CC(c3ccc(Oc6ccc(N)cc6)cc3)(C5)C4)cc2)cc1`, for which the TGI with TK-10 renal was > 39.4 µM; in the assay on T-47D breast it was 66.3 µM; in the assay with MCF7 breast, 21.6 µM; with K-562 leukemia, > 100 µM; in the assay on MOLT-4 leukemia it was > 100 µM; in the assay with OVCAR-5 ovarian, 62.2 µM. Also, the TGI is > 63.9 µM with HCT-15 colon; > 56.7 µM in the assay on HOP-62 NSCLC; 22.6 µM in the assay with NCI-H460 lung; 23.5 µM with M14 melanoma; > 58.7 µM in the assay on COLO 205 colon.
Consider `NC(=S)N1N=C(c2ccccc2O)CC1c1ccccc1` (stereo not given), for which the TGI is 78.3 µM in the assay on TK-10 renal; 68.5 µM in the assay with T-47D breast; 20.8 µM with MCF7 breast; > 100 µM with K-562 leukemia; 78.7 µM in the assay with MOLT-4 leukemia; 50.9 µM in the assay on OVCAR-5 ovarian. Further, the TGI came to 39 µM in the assay with HCT-15 colon; 25.5 µM in the assay with HOP-62 NSCLC; 35.6 µM in the assay with NCI-H460 lung; 24.5 µM in the assay with M14 melanoma; 26.5 µM in the assay with COLO 205 colon.
For `COc1ccc(C(=O)N(C(=O)N2CCN(c3ccccc3)CC2)S(=O)(=O)c2ccccc2)cc1`, the TGI with TK-10 renal is > 100 µM; in the assay on T-47D breast, 54 µM; in the assay with MCF7 breast it was > 100 µM; in the assay with K-562 leukemia, 94.4 µM; in the assay with MOLT-4 leukemia, 46.5 µM; in the assay on OVCAR-5 ovarian, 70.8 µM. In addition, the TGI was > 100 µM in the assay with HCT-15 colon; > 100 µM in the assay on HOP-62 NSCLC; > 100 µM in the assay with NCI-H460 lung; 42.6 µM in the assay on M14 melanoma; 31.8 µM in the assay with COLO 205 colon.
Take `COc1cc([C@@H]2c3cc4c(cc3[C@@H](c3c(O)cc(O)c5c3O[C@H](c3ccc(O)c(O)c3)[C@H](OC(=O)c3cc(O)c(O)c(O)c3)C5)[C@H]3COC(=O)[C@H]23)OCO4)cc(OC)c1OC`: the TGI in the assay on TK-10 renal, in the assay with T-47D breast, in the assay with MCF7 breast, in the assay with K-562 leukemia, with MOLT-4 leukemia and in the assay on OVCAR-5 ovarian was > 100 µM throughout. In addition, the TGI with HCT-15 colon is > 100 µM; with HOP-62 NSCLC, > 100 µM; in the assay on NCI-H460 lung it was 96.9 µM; in the assay on M14 melanoma it was > 100 µM; in the assay on COLO 205 colon, 90 µM.
